{"source": "patent US20220280661A1", "about": "“GLUCOCORTICOID RECEPTOR RADIOLIGANDS AND METHODS FOR THEIR PREPARATION AND USE” (The Regents of the University of California, priority 2019, published 2022)", "key": {"[1]": {"biological_target": "T1, GR (Homo sapiens, UniProt P04150)", "T1 construct": "evaluated using ^3H-ligand displacement assays on cells; endogenous in cells; host or cells: DU145", "T1 sequence (P04150 1-777)": "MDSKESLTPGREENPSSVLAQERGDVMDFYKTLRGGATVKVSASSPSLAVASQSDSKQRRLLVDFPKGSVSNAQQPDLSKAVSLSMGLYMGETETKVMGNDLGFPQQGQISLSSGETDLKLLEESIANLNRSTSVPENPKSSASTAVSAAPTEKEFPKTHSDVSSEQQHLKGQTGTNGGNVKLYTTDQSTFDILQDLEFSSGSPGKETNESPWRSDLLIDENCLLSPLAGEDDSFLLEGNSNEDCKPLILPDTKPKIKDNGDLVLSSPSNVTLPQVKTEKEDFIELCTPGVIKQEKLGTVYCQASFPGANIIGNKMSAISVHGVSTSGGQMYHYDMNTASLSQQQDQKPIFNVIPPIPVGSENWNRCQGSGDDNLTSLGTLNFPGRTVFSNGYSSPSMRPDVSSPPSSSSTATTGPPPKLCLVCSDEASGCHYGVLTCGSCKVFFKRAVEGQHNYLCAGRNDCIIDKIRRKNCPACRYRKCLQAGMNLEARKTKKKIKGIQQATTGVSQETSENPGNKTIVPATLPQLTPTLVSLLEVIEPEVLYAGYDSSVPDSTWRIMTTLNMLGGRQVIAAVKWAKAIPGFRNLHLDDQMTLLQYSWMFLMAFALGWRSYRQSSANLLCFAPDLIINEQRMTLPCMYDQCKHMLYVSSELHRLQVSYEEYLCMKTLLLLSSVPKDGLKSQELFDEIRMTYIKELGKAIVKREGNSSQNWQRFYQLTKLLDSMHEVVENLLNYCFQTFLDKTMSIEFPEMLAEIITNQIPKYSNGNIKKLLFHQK", "assay": "3H-ligand displacement assay on cells, GR (DU145)", "assay_type": "binding", "settings": "for selectivity for GR over other subfamily 3 nuclear hormone receptors: relative affinity", "protocol": "(§1) The affinity of YJH08 for GR and the other type 1 subfamily 3 nuclear hormone receptors was evaluated using ^3H-ligand displacement assays on cells. The Kd for subfamily 3 class C nuclear hormone receptors was determined on cells by displacing ^3H-steroidal agonists for the respective receptor. […] The Kd was determined using the following cell lines: DU145 (GR), LNCaP-AR (AR), MCF7 (PR, ER), and HEK293 transiently overexpressing full length human MR.\n(§2) The cold ligands and ^3H-steroids were co-incubated on cells in PBS at room temperature for one hour. Following incubation, the cells were washed twice with ice cold PBS and the unbound activity was retained for analysis. The cells were lysed with 1 mL of 1M NaOH and collected. Bound and unbound fractions were counted in a liquid scintillation counter and expressed as a percentage of the total activity added per equal relative number of cells. […] These experiments were performed at three concentrations of experimental ligand (1 pM, 100 nM and 10 μM), and a linear extrapolation was used to subtract the non-specific component of binding from each treatment condition. The specific binding component was plotted against the log of the competing ligand and curve fit using a non-linear regression algorithm with PRISM software."}, "[2]": {"biological_target": "T2, PR (Homo sapiens, UniProt P06401)", "T2 construct": "MCF7 (PR, ER); endogenous in cells; host or cells: MCF7", "T2 sequence (P06401 1-933)": "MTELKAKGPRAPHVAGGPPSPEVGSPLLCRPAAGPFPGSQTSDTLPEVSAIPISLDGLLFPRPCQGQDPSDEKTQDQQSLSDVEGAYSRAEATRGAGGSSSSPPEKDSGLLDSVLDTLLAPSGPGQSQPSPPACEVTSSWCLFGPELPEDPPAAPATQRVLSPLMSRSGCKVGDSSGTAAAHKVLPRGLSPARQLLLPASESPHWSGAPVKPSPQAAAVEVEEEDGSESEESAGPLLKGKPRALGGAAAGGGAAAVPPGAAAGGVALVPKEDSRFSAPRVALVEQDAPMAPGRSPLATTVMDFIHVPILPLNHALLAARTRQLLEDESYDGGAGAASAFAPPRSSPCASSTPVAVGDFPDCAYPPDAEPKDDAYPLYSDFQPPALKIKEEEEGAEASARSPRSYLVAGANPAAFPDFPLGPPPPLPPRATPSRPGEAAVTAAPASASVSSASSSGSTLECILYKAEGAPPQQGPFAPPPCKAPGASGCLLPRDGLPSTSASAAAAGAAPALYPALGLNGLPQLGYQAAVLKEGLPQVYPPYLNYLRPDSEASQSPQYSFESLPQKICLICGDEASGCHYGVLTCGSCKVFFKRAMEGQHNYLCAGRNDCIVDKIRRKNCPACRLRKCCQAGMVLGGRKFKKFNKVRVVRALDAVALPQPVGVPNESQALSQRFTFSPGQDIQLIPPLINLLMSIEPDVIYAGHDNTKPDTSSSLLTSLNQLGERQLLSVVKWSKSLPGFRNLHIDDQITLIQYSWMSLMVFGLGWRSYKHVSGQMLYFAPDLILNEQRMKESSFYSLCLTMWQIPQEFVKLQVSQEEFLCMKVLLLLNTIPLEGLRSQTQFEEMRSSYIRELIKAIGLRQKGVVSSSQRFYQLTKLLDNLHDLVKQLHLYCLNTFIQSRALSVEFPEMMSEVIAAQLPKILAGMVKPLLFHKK", "assay": "3H-ligand displacement assay on cells, PR (MCF7)", "assay_type": "binding", "protocol": "as §1, §2"}}, "note": "Read-outs that look alike come from different tables or passages of the source.", "data": [{"smiles": "COc1cccc2c1-c1ccc3c(c1C(Cc1ccc([18F])cc1)O2)C(C)=CC(C)(C)N3", "note": "(racemic) [[18F]-YJH08, [^18F]-5-(4-fluorobenzyl)-10-methoxy-2,2,4-trimethyl-2,5-dihydro-1H-chromeno[3,4-f]quinoline]", "values": [{"measurement": "affinity for GR", "setting": "[1]; in words", "value": "sub nM"}, {"measurement": "selectivity for GR over other subfamily 3 nuclear hormone receptors", "setting": "[1]", "value": "at least 100 fold"}]}, {"smiles": "COc1cccc2c1-c1ccc3c(c1C(Cc1ccc(F)cc1)O2)C(C)=CC(C)(C)N3", "note": "(racemic) [YJH08, 5-(4-fluorobenzyl)-10-methoxy-2,2,4-trimethyl-2,5-dihydro-1H-chromeno[3,4-f]quinoline]", "values": [{"measurement": "fold more potent than the agonist dexamethasone (GR)", "setting": "[1]", "value": "about 10 fold"}, {"measurement": "Kd", "setting": "[1]; DU145 cells, 3H-dexamethasone, Reference = dexamethasone, read-out: Kd GR", "value": 0.401, "unit": "nM"}, {"measurement": "Kd", "setting": "[1]; read-out: Kd for GR", "value": "~0.4", "unit": "nM"}, {"measurement": "selectivity for GR over other subfamily 3 nuclear hormone receptors", "setting": "[1]", "value": "at least 100 fold"}, {"measurement": "Kd", "setting": "[2]", "value": 555, "unit": "nM"}]}]}
